Earlier results in patent US20240109913A1, “NEW SPIRO[3H-INDOLE-3,2'-PYRROLIDIN]-2(1H)-ONE COMPOUNDS AND DERIVATIVES AS MDM2-P53 INHIBITORS” (Boehringer Ingelheim International GmbH, priority 2014, published 2024).

Experiments:
[1] = test system: human acute myeloid leukemia (AML) and human prostate tumor xenograft models harboring p53 wild-type; conditions: p53 wild-type (Tovar et al. 2013)
[2] = test system: p53 wild-type vs. p53 mutant cell lines; conditions: in vitro (Carol et al. 2013)
[3] = test system: acute lymphoblastic leukemia (ALL) xenograft models with mixed-lineage leukemia (MLL) rearrangement; conditions: ALL xenograft models with MLL rearrangement (Carol et al. 2013)
[4] = test system: solid tumor xenograft models; conditions: solid tumor xenograft models (Carol et al. 2013)

Row | SMILES | antiproliferative and proapoptotic activity [1] | cytotoxic activity, median IC50 [2] | efficacy in ALL xenograft models [3] | tumor growth inhibition [4]
1 | CCOc1cc(C(C)(C)C)ccc1C1=N[C@@](C)(c2ccc(Cl)cc2)[C@@](C)(c2ccc(Cl)cc2)N1C(=O)N1CCN(CCCS(C)(=O)=O)CC1 [RG7112] | antiproliferative and proapoptotic activity of RG7112 has been observed | – | – | –
2 | CCOc1cc(C(C)(C)C)ccc1C1=N[C@@](C)(c2ccc(Cl)cc2)[C@@](C)(c2ccc(Cl)cc2)N1C(=O)N1CCN(CCCS(C)(=O)=O)CC1 [RG-7112] | – | lower median IC50 values for p53 wild-type vs. p53 mutant cell lines | particularly efficacious | induced tumor growth inhibition
